According to publication PMC10017709, “Structural basis of selective cannabinoid CB2 receptor activation” (Nature Communications, 2023):
Where “and” joins values, the source holds several entries; their conditions need not be identical. Identical values can stand only once.

How the values were obtained:
CB1R I267ECL2L = CB1R I267ECL2L (Homo sapiens, UniProt P21554, I267L); assay: [35S]GTPγS assay, CB1R I267L mutant; format: biochemical; details: CB1R I267L; 10 µM agonist
CB1R QuadrupleTM1,7 [1] = molecular target: T1, CB1R QuadrupleTM1,7 (Homo sapiens, UniProt P21554, I119V/Q116K/S123C/T377K); assay: [3H]CP55,940 displacement assay, CB1R quadruple mutant; format: binding
T1 construct: The WT CB1R and CB2R genes were subcloned into vector pcDNA3.1; HA signal peptide (N); expressed in transfected cells; host or cells: HEK293T (transient, membrane homogenates)
T1 sequence (P21554 whole entry Q116K/I119V/S123C/T377K): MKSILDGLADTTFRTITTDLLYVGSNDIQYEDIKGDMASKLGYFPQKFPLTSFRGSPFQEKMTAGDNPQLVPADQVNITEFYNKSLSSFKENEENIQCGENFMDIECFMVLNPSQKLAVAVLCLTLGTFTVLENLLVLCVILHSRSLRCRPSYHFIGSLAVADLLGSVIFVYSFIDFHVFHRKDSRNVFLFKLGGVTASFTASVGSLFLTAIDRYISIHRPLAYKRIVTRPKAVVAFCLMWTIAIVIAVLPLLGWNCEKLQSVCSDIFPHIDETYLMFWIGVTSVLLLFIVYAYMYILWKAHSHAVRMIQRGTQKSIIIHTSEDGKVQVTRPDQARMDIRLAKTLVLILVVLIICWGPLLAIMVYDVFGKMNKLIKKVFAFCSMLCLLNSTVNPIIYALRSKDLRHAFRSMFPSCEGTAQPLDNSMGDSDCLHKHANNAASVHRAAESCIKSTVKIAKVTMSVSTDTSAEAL

CB2R WT [2] = molecular target: T2, CB2R WT (Homo sapiens, UniProt P34972); assay: [3H]CP55,940 displacement assay, CB2R WT; format: binding; details: for percentage specific [3H]CP55,940 binding: CB2R - WT, individual replicates
T2 sequence (P34972 whole entry): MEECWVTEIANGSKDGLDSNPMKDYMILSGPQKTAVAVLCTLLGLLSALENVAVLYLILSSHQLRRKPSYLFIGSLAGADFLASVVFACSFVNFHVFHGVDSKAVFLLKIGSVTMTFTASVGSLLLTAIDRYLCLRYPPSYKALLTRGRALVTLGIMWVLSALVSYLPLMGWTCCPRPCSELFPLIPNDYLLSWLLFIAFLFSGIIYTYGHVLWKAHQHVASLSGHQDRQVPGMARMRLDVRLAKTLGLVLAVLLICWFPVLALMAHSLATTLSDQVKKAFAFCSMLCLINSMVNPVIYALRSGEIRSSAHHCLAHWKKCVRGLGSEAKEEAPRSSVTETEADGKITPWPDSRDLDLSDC

CB2R-Quadruple^TM1,7 = CB2R-Quadruple^TM1,7 (Homo sapiens, UniProt P34972, C40S/K279T/K33Q/V36I); assay: [3H]CP55,940 displacement assay, CB2R quadruple mutant; format: binding; details: for percentage specific [3H]CP55,940 binding: QuadrupleTM1,7, individual replicates
Chain of CB2R-Quadruple^TM1,7 (P34972 whole entry K33Q/V36I/C40S/K279T): as the sequence (P34972 whole entry) above, with K33Q, V36I, C40S, K279T counted along it

CB1R D266ECL2E = molecular target: T3, CB1R D266ECL2E (Homo sapiens, UniProt P21554, D266E); assay: [35S]GTPγS assay, CB1R D266E mutant; format: biochemical
T3 construct: The WT CB1R and CB2R genes were subcloned into vector pcDNA3.1; HA signal peptide (N); expressed in transfected cells; host or cells: HEK293T (transient, membrane homogenates)
T3 sequence (P21554 whole entry D266E): as the sequence (P21554 whole entry Q116K/I119V/S123C/T377K) above, with K116Q, V119I, C123S, D266E, K377T counted along it

CB2R WT [3] = molecular target: T2, CB2R WT; assay: [35S]GTPγS G protein activation assay, CB2R WT; format: biochemical; details: for Emax (%): CB2R WT; for [35S]GTPγS binding, percentage of CP55,940: individual replicates
CB2R-L185^ECL2H = CB2R-L185^ECL2H (Homo sapiens, UniProt P34972, L185H); assay: [35S]GTPγS assay, CB2R L185H mutant; format: biochemical; details: L185H mutant
Chain of CB2R-L185^ECL2H (P34972 whole entry L185H): as the sequence (P34972 whole entry) above, with L185H counted along it

CB2R-H95^2.65A = CB2R-H95^2.65A (Homo sapiens, UniProt P34972, H95A); assay: [35S]GTPγS assay, CB2R H95A mutant; format: biochemical; details: H95A mutant
Chain of CB2R-H95^2.65A (P34972 whole entry H95A): as the sequence (P34972 whole entry) above, with H95A counted along it

CB1R-H270^ECL2L = CB1R-H270^ECL2L (Homo sapiens, UniProt P21554, H270L); assay: [3H]CP55,940 displacement assay, CB1R H270L mutant; format: binding
Chain of CB1R-H270^ECL2L (P21554 whole entry H270L): as the sequence (P21554 whole entry Q116K/I119V/S123C/T377K) above, with K116Q, V119I, C123S, H270L, K377T counted along it

CB1R-L359^6.51V = CB1R-L359^6.51V (Homo sapiens, UniProt P21554, L359V); assay: [3H]CP55,940 displacement assay, CB1R L359V mutant; format: binding; details: CB1R L3596.51V; 10 µM ligand; replicates 1-3
Chain of CB1R-L359^6.51V (P21554 whole entry L359V): as the sequence (P21554 whole entry Q116K/I119V/S123C/T377K) above, with K116Q, V119I, C123S, L359V, K377T counted along it

CB2R-E181^ECL2D = CB2R-E181^ECL2D (Homo sapiens, UniProt P34972, E181D); assay: [35S]GTPγS assay, CB2R E181D mutant; format: biochemical; details: E181D mutant
Chain of CB2R-E181^ECL2D (P34972 whole entry E181D): as the sequence (P34972 whole entry) above, with E181D counted along it

CB1R QuadrupleTM1,7 [4] = assay: [35S]GTPγS assay, CB1R quadruple mutant; format: biochemical, human
hCB1R WT = hCB1R WT (Homo sapiens, UniProt P21554); assay: [35S]GTPγS G protein activation assay, CB1R WT; format: biochemical; details: CB1R WT
Chain of hCB1R WT (P21554 whole entry): as the sequence (P21554 whole entry Q116K/I119V/S123C/T377K) above, with K116Q, V119I, C123S, K377T counted along it

Chain of CB1R I267ECL2L (P21554 whole entry I267L): as the sequence (P21554 whole entry Q116K/I119V/S123C/T377K) above, with K116Q, V119I, C123S, I267L, K377T counted along it

With `CC(C)CN1C(=O)CN(Cc2ccc(-c3ccc(F)c(CNC4CCOCC4)n3)cc2)C1=O` [LEI-102, 1-(4-(5-fluoro-6-(((tetrahydro-2H-pyran-4-yl)amino)methyl)pyridin-2-yl)benzyl)-3-isobutylimidazolidine-2,4-dione] the Agonist-mediated activation (CB1R I267ECL2L) was 1.0 ± 0.0 fold over its basal, the “Displacement (%) of [3H]CP55,940” value (CB1R QuadrupleTM1,7 [1]; CB1R Quadruple TM1,7, 10 µM compound) was 26 ± 10% and the “percentage specific [3H]CP55,940 binding” value (CB1R QuadrupleTM1,7 [1]; CB1R QuadrupleTM1,7, 10 µM ligand, replicates 1-3) was 70.97 percentage and 58.02 percentage and 92.08 percentage. The “percentage specific [3H]CP55,940 binding” value (CB2R WT [2]; log [ligand] (M) -5) was 11.20% and 5.48% and 13.91%, the “percentage specific [3H]CP55,940 binding” value (CB2R WT [2]; log [ligand] (M) -6) was 40.37% and 13.48% and 13.16% and the “percentage specific [3H]CP55,940 binding” value (CB2R WT [2]; log [ligand] (M) -7) was 87.52% and 46.85% and 48.46%. For the same compound, the “percentage specific [3H]CP55,940 binding” value (CB2R WT [2]; log [ligand] (M) -8) was 156.63% and 87.43% and 104.52%, the “percentage specific [3H]CP55,940 binding” value (CB2R WT [2]; log [ligand] (M) -9) was 143.94% and 83.15% and 100.75% and the “percentage specific [3H]CP55,940 binding” value (CB2R WT [2]; log [ligand] (M) -10) was 162.62% and 107.24% and 130.29%. The Ki (CB2R WT [2]; read-out: pKi (converted)) was 31.6 nM, the Ki (CB2R-Quadruple^TM1,7; CB2R Quadruple TM1,7 mutant, <5 when curve fit not finished) was 158 nM and the “percentage specific [3H]CP55,940 binding” value (CB2R-Quadruple^TM1,7; log [ligand] (M) -5) was 5.19% and 45.81% and -26.38%. For the same compound, the “percentage specific [3H]CP55,940 binding” value (CB2R-Quadruple^TM1,7; log [ligand] (M) -6) was 60.64% and 32.84% and -34.85%, the “percentage specific [3H]CP55,940 binding” value (CB2R-Quadruple^TM1,7; log [ligand] (M) -7) was 75.38% and 92.54% and 80.13% and the “percentage specific [3H]CP55,940 binding” value (CB2R-Quadruple^TM1,7; log [ligand] (M) -8) was 120.94% and 110.56% and 172.31%. The “percentage specific [3H]CP55,940 binding” value (CB2R-Quadruple^TM1,7; log [ligand] (M) -9) was 139.03% and 122.04% and 167.10%, the “percentage specific [3H]CP55,940 binding” value (CB2R-Quadruple^TM1,7; log [ligand] (M) -10) was 103.18% and 81.86% and 136.81% and the Agonist-mediated activation (CB1R D266ECL2E; CB1R D266E, 10 µM agonist) was 1.1 ± 0.1 fold over its basal. The “G protein activation, fold over its basal” value (“G protein activation, fold” below) (CB1R D266ECL2E; CB1R D266ECL2E, individual replicates) was 1.059 fold over its basal and 1.264 fold over its basal and 1.015 fold over its basal, the “Emax (%)” value (CB2R WT [3]; maximum effect at 10 µM compared to WT (Suppl. Table 6)) was 103 ± 3% and the “Emax (%)” value (CB2R WT [3]; maximum effect compared to CP55,940) was 76 ± 1%. The EC50 (CB2R WT [3]; [35S]GTPγS, HEK293T membranes transiently expressing CB2R WT) was 126 nM, the “[35S]GTPγS binding, percentage of CP55,940” value (CB2R WT [3]; log [agonist] (M) -5) was 76.96% and 72.92% and 77.27% and the “[35S]GTPγS binding, percentage of CP55,940” value (CB2R WT [3]; log [agonist] (M) -6) was 47.32% and 54.96% and 57.48%. For the same compound, the “[35S]GTPγS binding, percentage of CP55,940” value (CB2R WT [3]; log [agonist] (M) -7) was 8.09% and 19.22% and 13.61%, the “[35S]GTPγS binding, percentage of CP55,940” value (CB2R WT [3]; log [agonist] (M) -8) was 7.23% and 9.98% and 7.81% and the “[35S]GTPγS binding, percentage of CP55,940” value (CB2R WT [3]; log [agonist] (M) -9) was -12.88% and -8.32% and -11.10%. The “[35S]GTPγS binding, percentage of CP55,940” value (CB2R WT [3]; log [agonist] (M) -10) was -4.61% and 18.64% and -19.45%, the EC50 (CB2R-L185^ECL2H; HEK293T membranes) was 126 nM and the “Emax (%)” value (CB2R-L185^ECL2H; at 10 µM compared to WT) was 217 ± 21%. The EC50 (CB2R-H95^2.65A; <5 when curve fit not finished) was greater than 10000 nM, the pEC50 (CB2R-H95^2.65A; <5 when curve fit not finished) was “significantly reduced” and the “Emax (%)” value (CB2R-H95^2.65A; at 10 µM compared to WT) was 64 ± 7%. For the same compound, the “percentage specific [3H]CP55,940 binding” value (CB1R-H270^ECL2L; CB1R H270ECL2L, 10 µM ligand, replicates 1-3) was 43.52 percentage and 52.40 percentage and 62.26 percentage, the “Displacement (%) of [3H]CP55,940” value (CB1R-H270^ECL2L; CB1R H270L, 10 µM compound) was 47 ± 5% and the “percentage specific [3H]CP55,940 binding” value (CB1R-L359^6.51V) was 87.28 percentage and 69.23 percentage and 69.34 percentage. For the same compound, the EC50 (CB2R-E181^ECL2D; <5 when curve fit not finished) was 126 nM, the “Emax (%)” value (CB2R-E181^ECL2D; at 10 µM compared to WT) was 28 ± 13% and the Agonist-mediated activation (CB1R QuadrupleTM1,7 [4]; CB1R Quadruple TM1,7, 10 µM agonist) was 1.2 ± 0.1 fold over its basal. For the same compound, the “G protein activation, fold” value (CB1R QuadrupleTM1,7 [4]; CB1R QuadrupleTM1,7, individual replicates) was 1.167 fold over its basal and 1.343 fold over its basal and 1.151 fold over its basal, the Agonist-mediated activation (hCB1R WT; 10 µM agonist) was 1.0 ± 0.1 fold over its basal and the “G protein activation, fold” value (hCB1R WT; individual replicates) was 0.954 fold over its basal and 1.145 fold over its basal and 0.987 fold over its basal.
